Reference: patent publication US20080213219A1, “Methods for treatment and management of macular degeneration using 3-(4-amino-1-oxo-1,3-dihydro-isoindol-2-yl)-piperidine-2,6-dione” (Celgene Corporation, priority 2002, published 2008)

What was measured:
MD [1] = settings: cited from earlier work
MD [2] = settings: intravitreal injection, one-year period, patients with MD; cited from earlier work
laser-induced CNVM = settings: intravitreal injection, monkeys; cited from earlier work
TNF-α production [3] = test: Inhibition of TNF-α production following LPS-stimulation of human PBMC; type: cell-based; settings: LPS-stimulated PBMC, read-out: IC50 for inhibiting production of TNF-α
From the text: (§1) In a specific embodiment, inhibitions of TNF-α production following LPS-stimulation of human PBMC and human whole blood by 3-(4-amino-1-oxo-1,3-dihydro-isoindol-2-yl)-piperidine-2,6-dione, 4-(amino)-2-(2,6-dioxo-(3-piperidyl))-isoindoline-1,3-dione or thalidomide were investigated in vitro.

TNF-α production [4] = test: Inhibition of TNF-α production following LPS-stimulation of human whole blood; type: cell-based; settings: LPS-stimulated human whole blood; read-out: IC50 for inhibiting production of TNF-α
From the text: as §1

[5] = tested on: TNF-α, IL1β, IL6, IL10 production; test: LPS-stimulated cytokine production by PBMC; type: cell-based
macular degeneration = test: Clinical study in patients with macular degeneration, adjuvant to photodynamic therapy with verteporfin; type: in vivo; settings: about 10 mg/day for 20 weeks as adjuvant to verteporfin photodynamic therapy
Method: Immunomodulatory compounds are administered in an amount of about 0.1 to about 25 mg per day to patients with macular degeneration. In a specific embodiment, clinical studies are performed with forty patients with macular degeneration, who are divided into two groups. The first group receives conventional treatment for closing the leaking choroidal vessels (characteristic of this disease) by photodynamic therapy with verteporfin. Opthalmol 1999 (117): 1329-1345. The second group receives the same conventional therapy with verteporfin and 3-(4-amino-1-oxo-1,3-dihydro-isoindol-2-yl)-piperidine-2,6-dione in an amount of about 10 mg/day as an adjuvant for 20 weeks.
However, the first group without 3-(4-amino-1-oxo-1,3-dihydro-isoindol-2-yl)-piperidine-2,6-dione experiences progressive reperfusion of the ablated vessels several weeks after treatment. Progressive visual loss follows which requires the photodynamic therapy to be repeated.

Compound	efficacy at treating MD (MD [1]; clinical trial)	rate of adverse effects (MD [1]; in vivo)	prevention of severe visual loss (MD [2])	growth of laser-induced CNVM (laser-induced CNVM)	IC50 (TNF-α production [3]) [nM]	IC50 (TNF-α production [4]) [nM]	LPS-stimulated production of IL1β [5]	LPS-stimulated production of IL6 [5]	LPS-stimulated production of TNF-α [5]	production of the anti-inflammatory cytokine IL10 [5]	neovascular cascade / duration of the effects of photodynamic therapy (macular degeneration)
interferon-α	ineffective	high rate of adverse effects									
C[C@]12C=CC(=O)C=C1CC[C@H]1[C@@H]3C[C@@H](O)[C@](O)(C(=O)CO)[C@@]3(C)C[C@H](O)[C@@]12F [triamcinolone]			fails to prevent	inhibits							
Nc1cccc2c1C(=O)N(C1CCC(=O)NC1=O)C2=O (centres unmarked) [4-(Amino)-2-(2,6-dioxo(3-piperidyl))-isoindoline-1,3-dione]					~24	~25	dose-dependent inhibition	dose-dependent inhibition	dose-dependent inhibition	increased production	
Nc1cccc2c1CN(C1CCC(=O)NC1=O)C2=O (centres unmarked) [3-(4-Amino-1-oxo-1,3-dihydro-isoindol-2-yl)-piperidine-2,6-dione]					~100	~480	dose-dependent inhibition	dose-dependent inhibition	dose-dependent inhibition	increased production	sufficiently hindered
